Experimental data: patent US20240208972A1, “LRRK2 INHIBITORS AND USES THEREOF” (NEURON23, INC., priority 2022, published 2024)

Assays:
[1] = Brain penetration (Kp,uu) in CD-1 mice, with plasma and brain tissue binding by equilibrium dialysis; format: in vivo; settings: mouse, brain and plasma (unbound), male CD-1 mice, single IV bolus 1 mg/kg
Experimental: The compounds disclosed herein were tested on CD-1 mice for brain penetration (Kp, uu) according to the following procedures.
Nine male CD-1 mice were administered TEST COMPOUND by single intravenous bolus administration at 1 mg/kg. The vehicle used for IV study was 5% DMSO, 5% solutol, 20% PEG300 and 70% water. The detailed dosing and sampling regimens are described in the following tables.
1.0 mg of test compound was accurately weighed into a glass vial, and slowly added with 104 μL of DMSO and vortexed for 1 min. Then 104 μL of solutol was added and vortexed for 1 min. Then 415 μL of PEG300 was added and vortexed for 1 min. Then 1000 μL of water was added and vortexed for 1 min. Finally, 451 μL of water was added and vortexed for 1 min to get a clear solution.
The body weights were in the range from 28.81 to 31.25 g for males on the first dosing day. All animals received a single intravenous bolus administration of TEST COMPOUND from the tail vein.
Each blood collection (about 0.06 mL per time point) was performed from saphenous vein of each animal into pre-chilled commercial K2-EDTA tubes as anti-coagulant and placed on wet ice until centrifugation.
Plasma samples were then prepared by centrifuging the blood samples at approximately 4° C., 3200×g for 10 minutes. All plasma samples were then quickly frozen over dry ice and kept at −60° C. or lower until LC-MS/MS analysis.
Brain tissue was homogenized using homogenizing buffer (15 mM PBS (pH7.4): MeOH=2:1) at the ratio of 1:9 (1 g tissue with 9 mL buffer, the dilution ratio is 10). The tissue homogenate was kept at −60° C. or lower until LC-MS/MS analysis.
The concentrations of TEST COMPOUND in plasma and brain were determined by using an LC-MS/MS method.
The plasma and brain concentration of TEST COMPOUND in study animals was subjected to a non-compartmental pharmacokinetic analysis by using the Phoenix WinNonlin software program (version 6.3 or above, Pharsight). The linear/log trapezoidal rule was applied in obtaining the PK parameters.
Individual plasma and brain concentration values that were below the lower limit of quantitation (LLOQ) were excluded from the PK parameter calculation. The nominal dose levels and nominal sampling times were used in the calculation of all pharmacokinetic parameters.
Mouse Kp, uu=(% free in mouse brain*concentration in mouse brain)/(% free in mouse plasma*concentration in mouse plasma)
The dialysis apparatus was assembled according to the manufacturer's instruction. Each Cell was filled with 120 μL of spiked plasma sample and dialyzed against equal volume of dialysis buffer (PBS). The assay was performed in duplicate. The dialysis plates were sealed and incubated in an incubator at 37° C. with 5% CO2 and rotated at 100 rpm for 6 hours. At the end of incubation, the seals were removed and 50 μL of samples from both buffer and plasma chambers were transferred to a 96-well plate.
All calculations were carried out using Microsoft Excel. The concentrations of test compound and control compound in the buffer and plasma chambers were determined from peak area ratios (PAR) of analyte to internal standard. Protein binding (% unbound and % bound) and recovery (% recovery) of test and control compounds was calculated as follows:
• 1. Thawing of the frozen brain (stored at −80° C.) • Frozen brain tissue was thawed at room temperature in a bath. Only brain tissue was used that was thawed no more than once. • 2. Preparation of brain tissue homogenate • Brain tissue homogenate was prepared by diluting one quantity (g) of the whole brain tissue with three volumes (mL) of buffer (PBS, pH 7.4) and homogenizing the mixture using a tissue homogenizer. Brain tissue homogenate was frozen at −80° C. for later use/comparison. • 3. Preparation of working solutions • The working solutions of test compound and the control compound propranolol were prepared in dimethyl sulfoxide (DMSO) at the concentration of 200 μM. […]

[2] = tested on: Caco-2 cells; test: Caco-2 bidirectional permeability; format: in vitro ADME; settings: for Caco-2 A2B (10^−6 cm/s): A to B; for Caco-2 A2B (10^−6 cm/s) / Caco-2 B2A (10^−6 cm/s): HBSS pH 7.4, 2 hours; for Caco-2 B2A (10^−6 cm/s): B to A; for Caco-2 ER: Efflux Ratio=Papp (BA)/Papp (AB)
Method in brief: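 Caco-2 monolayers grown 21–28 days on PET inserts were run in duplicate in HBSS with 10 mM HEPES, pH 7.4. Compound was tested in both directions at […] for 2 h at 37 °C and quantified by LC-MS/MS. Papp, % recovery and efflux ratio (B-A/A-B) were calculated, with lucifer yellow checking monolayer integrity.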

Compound	Kp uu [1]	Caco-2 A2B (10^−6 cm/s) [2]	Caco-2 B2A (10^−6 cm/s) [2]	Caco-2 ER [2]
Cc1n[nH]c2c1N=C(c1c(F)cccc1F)Nc1c-2cc(N2CCN(CC(F)(F)F)CC2)nc1C [Example 23, 5-(2,6-difluorophenyl)-3,7-dimethyl-9-(4-(2,2,2-trifluoroethyl)piperazin-1-yl)-1,6-dihydropyrazolo[4,3-d]pyrido[4,3-f][1,3]diazepine]	> 0.4	H (H (High permeability)”: A2B (B2A)>5)	H (H (High permeability)”: A2B (B2A)>5)	N (N (Non-substrate)”: ER<2.5)
Cc1n[nH]c2c1N=C(c1c(F)cccc1F)Nc1ccc(N3CCN(CCF)CC3)cc1-2 [Example 25, 5-(2,6-difluorophenyl)-9-[4-(2-fluoroethyl)piperazin-1-yl]-3-methyl-1,6-dihydropyrazolo[4,3-d][1,3]benzodiazepine]	0.2 to 0.4	H (H (High permeability)”: A2B (B2A)>5)	H (H (High permeability)”: A2B (B2A)>5)	L (L (Likely)”: ER>2.5)
Cc1n[nH]c2c1N=C(c1c(F)cccc1F)Nc1ccc(N3CCO[C@@H](C)C3)cc1-2 [Example 26, (S)-4-(5-(2,6-difluorophenyl)-3-methyl-1,6-dihydrobenzo[d]pyrazolo[3,4-f][1,3]diazepin-9-yl)-2-methylmorpholine]	0.2 to 0.4	H (H (High permeability)”: A2B (B2A)>5)	H (H (High permeability)”: A2B (B2A)>5)	N (N (Non-substrate)”: ER<2.5)
Cc1n[nH]c2c1N=C(c1c(F)cc(F)cc1F)Nc1ccc(N3CCOCC3)cc1-2 [Example 27, 4-[3-methyl-5-(2,4,6-trifluorophenyl)-1,6-dihydropyrazolo[4,3-d][1,3]benzodiazepin-9-yl]morpholine]	0.2 to 0.4	H (H (High permeability)”: A2B (B2A)>5)	H (H (High permeability)”: A2B (B2A)>5)	N (N (Non-substrate)”: ER<2.5)
Cc1n[nH]c2c1N=C(c1c(F)cccc1F)Nc1cc(F)c(N3CCOCC3)cc1-2 [Example 28, 4-[5-(2,6-difluorophenyl)-8-fluoro-3-methyl-1,6-dihydropyrazolo[4,3-d][1,3]benzodiazepine-9-yl]morpholine]	> 0.4	H (H (High permeability)”: A2B (B2A)>5)	H (H (High permeability)”: A2B (B2A)>5)	N (N (Non-substrate)”: ER<2.5)
Cc1n[nH]c2c1N=C(c1c(F)cccc1F)Nc1ccc(N3CCOCC3)cc1-2 [Example 29, 4-(5-(2,6-difluorophenyl)-3-methyl-1,6-dihydrobenzo[d]pyrazolo[3,4-f][1,3]diazepin-9-yl)morpholine]	> 0.4	H (H (High permeability)”: A2B (B2A)>5)	H (H (High permeability)”: A2B (B2A)>5)	N (N (Non-substrate)”: ER<2.5)
Cc1n[nH]c2c1N=C(c1c(F)cccc1F)Nc1c(F)cc(N3CCOCC3)cc1-2 [Example 30, 4-(5-(2,6-difluorophenyl)-7-fluoro-3-methyl-1,6-dihydrobenzo[d]pyrazolo[3,4-f][1,3]diazepin-9-yl)morpholine]	> 0.4	H (H (High permeability)”: A2B (B2A)>5)	H (H (High permeability)”: A2B (B2A)>5)	N (N (Non-substrate)”: ER<2.5)
CCc1n[nH]c2c1N=C(c1c(F)cccc1F)Nc1cnc(N3CCOCC3)cc1-2 [Example 31, 4-[8-(2,6-difluorophenyl)-5-ethyl-3,4,7,9,12-pentazatricyclo[8.4.0.02,6]tetradeca-1(10),2(6),4,7,11,13-hexaen-13-yl]morpholine]	0.2 to 0.4	H (H (High permeability)”: A2B (B2A)>5)	H (H (High permeability)”: A2B (B2A)>5)	N (N (Non-substrate)”: ER<2.5)
[2H]C([2H])([2H])c1n[nH]c2c1N=C(c1c(F)cccc1F)Nc1cnc(N3CCOCC3)cc1-2 [Example 32, 4-[8-(2,6-difluorophenyl)-5-(trideuteriomethyl)-3,4,7,9,12-pentazatricyclo[8.4.0.02,6]tetradeca-1(10),2(6),4,7,11,13-hexaen-13-yl]morpholine]	0.2 to 0.4	H (H (High permeability)”: A2B (B2A)>5)	H (H (High permeability)”: A2B (B2A)>5)	L (L (Likely)”: ER>2.5)
[2H]C([2H])([2H])c1n[nH]c2c1N=C(c1c(F)cccc1F)Nc1ccc(N3CCOCC3)cc1-2 [Example 33, 4-[5-(2,6-difluorophenyl)-3-(trideuteriomethyl)-1,6-dihydropyrazolo[4,3-d][1,3]benzodiazepin-9-yl]morpholine]	0.2 to 0.4	H (H (High permeability)”: A2B (B2A)>5)	H (H (High permeability)”: A2B (B2A)>5)	N (N (Non-substrate)”: ER<2.5)
[2H]C([2H])([2H])c1n[nH]c2c1N=C(c1c(F)cccc1F)Nc1ccc(N3CCO[C@@H](C)C3)cc1-2 [Example 34, (2S)-4-[5-(2,6-difluorophenyl)-3-(trideuteriomethyl)-1,6-dihydropyrazolo[4,3-d][1,3]benzodiazepin-9-yl]-2-methyl-morpholine]	0.2 to 0.4	H (H (High permeability)”: A2B (B2A)>5)	H (H (High permeability)”: A2B (B2A)>5)	N (N (Non-substrate)”: ER<2.5)
Cc1n[nH]c2c1N=C(c1c(F)cccc1F)Nc1c-2cc(N2CCO[C@@H](C)C2)nc1C [Example 40, (S)-4-(5-(2,6-difluorophenyl)-3,7-dimethyl-1,6-dihydropyrazolo[4,3-d]pyrido[4,3-f][1,3]diazepin-9-yl)-2-methylmorpholine]	< 0.2	H (H (High permeability)”: A2B (B2A)>5)	H (H (High permeability)”: A2B (B2A)>5)	N (N (Non-substrate)”: ER<2.5)
Cc1n[nH]c2c1N=C(c1c(F)cccc1F)N1CCc3nc(N4CCOCC4)cc-2c31 [Example 42, 4-[8-(2,6-difluorophenyl)-5-methyl-3,4,7,9,13-pentazatetracyclo[7.6.1.02,6.012,16]hexadeca-1(16),2(6),4,7,12,14-hexaen-14-yl]morpholine]	0.2 to 0.4	H (H (High permeability)”: A2B (B2A)>5)	H (H (High permeability)”: A2B (B2A)>5)	N (N (Non-substrate)”: ER<2.5)
